# Measured values: article PMC11882969 (Nature Communications, 2025)
# Several values for one entry are separate records, joined by “and”; a condition that tells them apart may be missing. Equal values may be shown once.
# Assays:
# Type in all cases: cell-based
# [1] = target: panel of 320 non-olfactory GPCRs (Homo sapiens, UniProt Q8IZF4)
# [2] = target: panel of 320 non-olfactory GPCRs (Homo sapiens, UniProt Q14831)
# [3] = target: panel of 320 non-olfactory GPCRs (Homo sapiens, UniProt Q86SM8)
# [4] = target: panel of 320 non-olfactory GPCRs (Homo sapiens, UniProt Q96RJ0)
# [5] = target: panel of 320 non-olfactory GPCRs (Homo sapiens, UniProt P43115)
# [6] = target: panel of 320 non-olfactory GPCRs (Homo sapiens, UniProt Q9BXC0)
# [7] = target: panel of 320 non-olfactory GPCRs (Homo sapiens, UniProt Q9Y271)
# [8] = target: panel of 320 non-olfactory GPCRs (Homo sapiens, UniProt P25024)
# [9] = target: panel of 320 non-olfactory GPCRs (Homo sapiens, UniProt Q5NUL3)
# [10] = target: panel of 320 non-olfactory GPCRs (Homo sapiens, UniProt Q8NGU9)
# [11] = target: panel of 320 non-olfactory GPCRs (Homo sapiens, UniProt Q13639)
# [12] = target: panel of 320 non-olfactory GPCRs (Homo sapiens, UniProt P18089)
# [13] = target: panel of 320 non-olfactory GPCRs (Homo sapiens, UniProt Q02643)
# [14] = target: panel of 320 non-olfactory GPCRs (Homo sapiens, UniProt Q9H1C0)
# [15] = target: panel of 320 non-olfactory GPCRs (Homo sapiens, UniProt P25021)
# [16] = target: panel of 320 non-olfactory GPCRs (Homo sapiens, UniProt P08908)
# [17] = target: panel of 320 non-olfactory GPCRs (Homo sapiens, UniProt P24530)
# [18] = target: panel of 320 non-olfactory GPCRs (Homo sapiens, UniProt P47900)
# [19] = target: panel of 320 non-olfactory GPCRs (Homo sapiens, UniProt P30939)
# [20] = target: panel of 320 non-olfactory GPCRs (Homo sapiens, UniProt Q9H1Y3)
# [21] = target: panel of 320 non-olfactory GPCRs (Homo sapiens, UniProt Q9HBX9)
# [22] = target: panel of 320 non-olfactory GPCRs (Homo sapiens, UniProt Q9UPC5)
# [23] = target: panel of 320 non-olfactory GPCRs (Homo sapiens, UniProt Q99705)
# [24] = target: panel of 320 non-olfactory GPCRs (Homo sapiens, UniProt O95665)
# [25] = target: panel of 320 non-olfactory GPCRs (Homo sapiens, UniProt Q8IZF5)
# [26] = target: panel of 320 non-olfactory GPCRs (Homo sapiens, UniProt Q8TDV0)
# [27] = target: panel of 320 non-olfactory GPCRs (Homo sapiens, UniProt Q9H3N8)
# [28] = target: panel of 320 non-olfactory GPCRs (Homo sapiens, UniProt Q7Z601)
# [29] = target: panel of 320 non-olfactory GPCRs (Homo sapiens, UniProt P51681)
# [30] = target: panel of 320 non-olfactory GPCRs (Homo sapiens, UniProt P41180)
# [31] = target: panel of 320 non-olfactory GPCRs (Homo sapiens, UniProt P22888)
# [32] = target: panel of 320 non-olfactory GPCRs (Homo sapiens, UniProt Q99500)
# [33] = target: panel of 320 non-olfactory GPCRs (Homo sapiens, UniProt P18825)
# [34] = target: panel of 320 non-olfactory GPCRs (Homo sapiens, UniProt P29371)
# [35] = target: panel of 320 non-olfactory GPCRs (Homo sapiens, UniProt Q96LB2)
# [36] = target: panel of 320 non-olfactory GPCRs (Homo sapiens, UniProt P50391)
# [37] = target: panel of 320 non-olfactory GPCRs (Homo sapiens, UniProt O00421)
# Sequence of panel of 320 non-olfactory GPCRs (Homo sapiens, UniProt Q86SM8) (Q86SM8 whole entry): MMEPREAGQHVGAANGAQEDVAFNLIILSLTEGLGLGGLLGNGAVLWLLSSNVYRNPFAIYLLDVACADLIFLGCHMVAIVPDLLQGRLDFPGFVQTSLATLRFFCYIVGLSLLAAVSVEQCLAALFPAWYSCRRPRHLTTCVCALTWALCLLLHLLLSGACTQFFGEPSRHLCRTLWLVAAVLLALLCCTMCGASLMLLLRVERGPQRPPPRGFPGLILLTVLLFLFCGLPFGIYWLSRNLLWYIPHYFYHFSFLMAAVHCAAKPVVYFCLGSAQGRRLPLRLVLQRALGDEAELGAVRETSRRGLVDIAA
# Sequence of panel of 320 non-olfactory GPCRs (Homo sapiens, UniProt P51681) (P51681 whole entry): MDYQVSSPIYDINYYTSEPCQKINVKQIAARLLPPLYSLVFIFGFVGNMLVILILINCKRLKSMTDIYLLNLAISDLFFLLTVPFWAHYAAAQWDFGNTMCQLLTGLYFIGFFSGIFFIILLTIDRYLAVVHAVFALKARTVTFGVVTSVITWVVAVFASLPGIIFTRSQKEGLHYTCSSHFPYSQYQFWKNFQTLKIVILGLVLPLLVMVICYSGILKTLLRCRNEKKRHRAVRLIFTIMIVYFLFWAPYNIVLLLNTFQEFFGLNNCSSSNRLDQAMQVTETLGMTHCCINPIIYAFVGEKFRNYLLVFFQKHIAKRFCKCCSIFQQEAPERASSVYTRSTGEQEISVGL
# Sequence of panel of 320 non-olfactory GPCRs (Homo sapiens, UniProt P29371) (P29371 whole entry): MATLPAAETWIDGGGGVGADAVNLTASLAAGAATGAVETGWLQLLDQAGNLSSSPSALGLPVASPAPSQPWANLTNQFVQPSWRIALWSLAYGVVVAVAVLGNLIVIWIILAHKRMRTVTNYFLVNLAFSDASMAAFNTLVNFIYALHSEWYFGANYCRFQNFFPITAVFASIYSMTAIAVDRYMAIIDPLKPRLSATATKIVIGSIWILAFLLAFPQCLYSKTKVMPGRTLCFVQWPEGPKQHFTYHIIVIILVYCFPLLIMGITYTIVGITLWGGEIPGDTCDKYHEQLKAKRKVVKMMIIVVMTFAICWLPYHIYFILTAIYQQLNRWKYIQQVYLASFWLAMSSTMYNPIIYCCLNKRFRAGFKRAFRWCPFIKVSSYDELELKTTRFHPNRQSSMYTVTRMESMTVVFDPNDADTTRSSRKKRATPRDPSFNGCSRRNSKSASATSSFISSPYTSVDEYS
# Sequence of panel of 320 non-olfactory GPCRs (Homo sapiens, UniProt P50391) (P50391 whole entry): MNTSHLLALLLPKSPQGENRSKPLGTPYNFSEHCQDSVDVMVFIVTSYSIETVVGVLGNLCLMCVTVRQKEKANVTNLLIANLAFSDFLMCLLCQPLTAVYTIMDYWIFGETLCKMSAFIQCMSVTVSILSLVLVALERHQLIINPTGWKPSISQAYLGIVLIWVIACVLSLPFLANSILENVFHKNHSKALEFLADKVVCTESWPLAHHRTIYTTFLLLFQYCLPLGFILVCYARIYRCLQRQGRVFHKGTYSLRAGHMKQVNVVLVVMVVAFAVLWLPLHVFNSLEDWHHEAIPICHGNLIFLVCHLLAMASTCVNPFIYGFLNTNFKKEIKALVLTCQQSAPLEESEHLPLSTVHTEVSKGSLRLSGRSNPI
# Sequence of panel of 320 non-olfactory GPCRs (Homo sapiens, UniProt P30939) (P30939 whole entry): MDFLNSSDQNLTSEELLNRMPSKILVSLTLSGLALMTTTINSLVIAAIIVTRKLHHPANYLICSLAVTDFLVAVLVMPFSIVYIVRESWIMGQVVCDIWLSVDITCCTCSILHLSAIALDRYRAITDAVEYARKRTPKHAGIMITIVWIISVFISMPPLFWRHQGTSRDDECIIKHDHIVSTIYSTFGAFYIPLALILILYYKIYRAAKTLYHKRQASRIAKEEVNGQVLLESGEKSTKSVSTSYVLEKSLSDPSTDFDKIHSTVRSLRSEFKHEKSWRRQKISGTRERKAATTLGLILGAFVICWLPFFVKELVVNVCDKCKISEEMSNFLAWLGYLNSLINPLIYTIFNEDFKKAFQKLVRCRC
# Sequence of panel of 320 non-olfactory GPCRs (Homo sapiens, UniProt Q99500) (Q99500 whole entry): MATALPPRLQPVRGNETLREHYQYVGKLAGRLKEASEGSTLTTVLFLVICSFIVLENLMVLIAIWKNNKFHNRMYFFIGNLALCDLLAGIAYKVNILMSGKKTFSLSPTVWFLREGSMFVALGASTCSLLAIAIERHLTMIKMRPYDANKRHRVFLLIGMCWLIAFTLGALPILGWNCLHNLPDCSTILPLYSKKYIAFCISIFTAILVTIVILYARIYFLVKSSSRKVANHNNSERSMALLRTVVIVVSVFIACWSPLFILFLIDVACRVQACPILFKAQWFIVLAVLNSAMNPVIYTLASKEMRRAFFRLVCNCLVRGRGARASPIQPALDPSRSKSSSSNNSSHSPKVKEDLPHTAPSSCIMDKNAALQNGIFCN
# Sequence of panel of 320 non-olfactory GPCRs (Homo sapiens, UniProt Q96RJ0) (Q96RJ0 whole entry): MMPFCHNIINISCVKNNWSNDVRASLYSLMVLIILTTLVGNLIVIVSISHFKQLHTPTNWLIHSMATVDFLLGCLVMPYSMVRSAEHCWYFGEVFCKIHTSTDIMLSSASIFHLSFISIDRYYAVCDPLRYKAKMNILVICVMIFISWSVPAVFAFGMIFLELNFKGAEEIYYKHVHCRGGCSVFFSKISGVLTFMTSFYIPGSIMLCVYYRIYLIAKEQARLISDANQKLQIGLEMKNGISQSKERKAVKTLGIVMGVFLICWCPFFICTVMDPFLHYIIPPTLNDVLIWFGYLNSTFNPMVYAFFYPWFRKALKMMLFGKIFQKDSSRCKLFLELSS
# Sequence of panel of 320 non-olfactory GPCRs (Homo sapiens, UniProt Q13639) (Q13639 whole entry): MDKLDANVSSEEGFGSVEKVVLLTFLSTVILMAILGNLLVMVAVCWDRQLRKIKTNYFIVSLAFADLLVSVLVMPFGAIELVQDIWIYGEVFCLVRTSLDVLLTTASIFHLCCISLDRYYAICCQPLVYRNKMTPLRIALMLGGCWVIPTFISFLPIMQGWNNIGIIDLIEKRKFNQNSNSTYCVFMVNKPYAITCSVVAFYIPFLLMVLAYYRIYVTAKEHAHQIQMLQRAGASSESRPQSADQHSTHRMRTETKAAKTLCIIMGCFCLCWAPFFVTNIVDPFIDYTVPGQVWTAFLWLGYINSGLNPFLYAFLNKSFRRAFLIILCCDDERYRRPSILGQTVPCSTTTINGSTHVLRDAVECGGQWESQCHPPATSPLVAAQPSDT
# Sequence of panel of 320 non-olfactory GPCRs (Homo sapiens, UniProt P24530) (P24530 27-442): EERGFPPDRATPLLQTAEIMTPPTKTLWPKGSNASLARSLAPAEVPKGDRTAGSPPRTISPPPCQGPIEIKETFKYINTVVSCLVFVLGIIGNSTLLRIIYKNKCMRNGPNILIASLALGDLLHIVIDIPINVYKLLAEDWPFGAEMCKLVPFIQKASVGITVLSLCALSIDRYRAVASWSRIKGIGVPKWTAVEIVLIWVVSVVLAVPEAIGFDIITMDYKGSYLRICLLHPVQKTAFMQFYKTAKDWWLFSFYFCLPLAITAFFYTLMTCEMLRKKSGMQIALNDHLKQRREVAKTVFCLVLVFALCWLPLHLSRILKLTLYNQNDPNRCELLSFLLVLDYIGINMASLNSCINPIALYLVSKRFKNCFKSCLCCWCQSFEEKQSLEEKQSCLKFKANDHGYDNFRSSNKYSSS
# Sequence of panel of 320 non-olfactory GPCRs (Homo sapiens, UniProt Q9H3N8) (Q9H3N8 whole entry): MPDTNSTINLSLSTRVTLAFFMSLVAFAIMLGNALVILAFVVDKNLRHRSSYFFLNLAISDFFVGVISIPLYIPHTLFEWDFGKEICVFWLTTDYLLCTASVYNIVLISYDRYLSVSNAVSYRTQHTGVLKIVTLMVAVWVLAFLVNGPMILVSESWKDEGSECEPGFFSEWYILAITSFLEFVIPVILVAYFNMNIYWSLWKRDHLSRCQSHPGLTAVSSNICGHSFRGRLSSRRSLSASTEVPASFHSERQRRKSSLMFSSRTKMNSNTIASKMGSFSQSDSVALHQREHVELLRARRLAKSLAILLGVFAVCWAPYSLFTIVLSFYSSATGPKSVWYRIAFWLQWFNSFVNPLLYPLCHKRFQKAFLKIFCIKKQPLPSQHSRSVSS
# Sequence of panel of 320 non-olfactory GPCRs (Homo sapiens, UniProt Q14831) (Q14831 35-915): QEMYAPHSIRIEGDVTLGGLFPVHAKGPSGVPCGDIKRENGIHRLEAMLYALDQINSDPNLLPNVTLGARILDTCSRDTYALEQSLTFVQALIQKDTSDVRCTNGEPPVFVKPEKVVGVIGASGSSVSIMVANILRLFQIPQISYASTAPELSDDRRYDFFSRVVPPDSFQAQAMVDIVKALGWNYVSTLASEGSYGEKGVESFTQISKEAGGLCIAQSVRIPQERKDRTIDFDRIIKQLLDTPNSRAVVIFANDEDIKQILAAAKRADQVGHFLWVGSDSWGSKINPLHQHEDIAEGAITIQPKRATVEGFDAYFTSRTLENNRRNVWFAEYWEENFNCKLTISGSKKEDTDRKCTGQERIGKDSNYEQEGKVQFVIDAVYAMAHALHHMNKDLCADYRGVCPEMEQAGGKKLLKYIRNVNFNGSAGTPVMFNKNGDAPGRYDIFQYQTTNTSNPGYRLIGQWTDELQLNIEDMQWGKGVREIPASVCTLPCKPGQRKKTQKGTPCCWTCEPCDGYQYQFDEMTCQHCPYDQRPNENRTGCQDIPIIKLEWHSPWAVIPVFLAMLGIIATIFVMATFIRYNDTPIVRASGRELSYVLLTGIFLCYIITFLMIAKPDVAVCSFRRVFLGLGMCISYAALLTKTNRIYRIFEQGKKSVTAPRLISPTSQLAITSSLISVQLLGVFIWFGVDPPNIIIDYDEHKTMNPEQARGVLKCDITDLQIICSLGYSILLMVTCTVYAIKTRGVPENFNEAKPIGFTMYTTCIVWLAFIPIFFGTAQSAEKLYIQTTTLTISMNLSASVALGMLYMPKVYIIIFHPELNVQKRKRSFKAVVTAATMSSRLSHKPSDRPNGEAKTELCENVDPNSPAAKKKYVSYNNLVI
smiles,measurement,setting,value
Cc1cc(C(=O)NC(C)(c2ccco2)c2ccco2)nn1-c1cccc(C(F)(F)F)c1 [‘4936],Fold of Basal RLU,[1],0.9 and 1 and 0.8 and 0.6
same,Fold of Basal RLU,[2],0.5 and 1 and 0.9 and 0.6
same,Fold of Basal RLU,[3],0.9 fold and 1.5 fold and 1.3 fold
same,Fold of Basal RLU,[4],1 fold and 1.1 fold and 0.9 fold
same,Fold of Basal RLU,[5],1.5 fold and 0.9 fold and 1 fold
same,Fold of Basal RLU,[6],0.4 and 0.7 and 0.6
same,Fold of Basal RLU,[7],1.1 and 0.9
same,Fold of Basal RLU,[8],0.9 fold and 1.4 fold and 1.3 fold
same,Fold of Basal RLU,[9],0.3 and 0.2
same,Fold of Basal RLU,[10],0.7 and 0.6 and 0.5
same,Fold of Basal RLU,[11],1 fold and 1.6 fold and 0.9 fold
same,Fold of Basal RLU,[12],0.9 and 1.2 and 1.6 and 1
same,Fold of Basal RLU,[13],0.7 and 0.6 and 1
same,Fold of Basal RLU,[14],0.7 and 0.4 and 0.6
same,Fold of Basal RLU,[15],1 and 1.2 and 1.1 and 0.6
same,Fold of Basal RLU,[16],0.8 fold and 0.7 fold and 0.6 fold
same,Fold of Basal RLU,[17],0.9 and 0.7 and 0.5
same,Fold of Basal RLU,[18],1.1 fold and 0.9 fold and 0.7 fold and 1 fold
same,Fold of Basal RLU,[19],0.8 fold and 1.5 fold and 0.9 fold
same,Fold of Basal RLU,[20],0.4 and 0.5
same,Fold of Basal RLU,[21],0.9 and 1.1 and 1.7 and 1.3
COC(=O)[C@@](C)(NC(=O)c1cc(C)n(-c2cccc(C(F)(F)F)c2)n1)c1cccs1 [‘1350],Fold of Basal RLU,[22],0.7 fold and 1 fold and 1.1 fold and 1.4 fold
same,Fold of Basal RLU,[23],1.3 and 1.1 and 0.7
same,Fold of Basal RLU,[24],1.2 and 1 and 0.7 and 0.8
same,Fold of Basal RLU,[25],1.3 and 0.8 and 1.2
same,Fold of Basal RLU,[26],0.6 and 0.8 and 1.1
same,Fold of Basal RLU,[27],1.6 fold and 1.4 fold and 2.4 fold and 1.5 fold
same,Fold of Basal RLU,[28],1.2 and 0.9 and 1
same,Fold of Basal RLU,[29],0.9 and 0.6 and 1.1 and 0.7
same,Fold of Basal RLU,[30],0.4 and 0.7 and 0.8
same,Fold of Basal RLU,[31],0.9 and 1 and 1.1
same,Fold of Basal RLU,[32],0.4 and 0.5 and 0.8
same,Fold of Basal RLU,[33],0.7 and 1.2 and 0.6
same,Fold of Basal RLU,[34],1.6 fold and 1.3 fold and 1.4 fold
same,Fold of Basal RLU,[35],0.9 and 0.7 and 0.8 and 1.1
same,Fold of Basal RLU,[36],1.3 and 1.4 and 1 and 0.7
same,Fold of Basal RLU,[37],1.8 and 1.2 and 1 and 0.9
